Assay results: PubChem BioAssay (NCI)
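Compound exposure: 48 hours, 5 concentrations, 96-well plates. GI50 = concentration required for 50% inhibition of growth. Definition used: TGI = concentration required for complete inhibition of growth.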

Columns and labels:
Assay in all cases: NCI-60 cell line screen, 48 h
A549 NSCLC = test system: A549 NSCLC
ACHN renal = test system: ACHN renal
COLO 205 colon = test system: COLO 205 colon
HT29 colon = test system: HT29 colon
LOX IMVI melanoma = test system: LOX IMVI melanoma
MOLT-4 leukemia = test system: MOLT-4 leukemia
PC-3 prostate = test system: PC-3 prostate
RPMI-8226 leukemia = test system: RPMI-8226 leukemia
SF-539 CNS = test system: SF-539 CNS
SK-MEL-5 melanoma = test system: SK-MEL-5 melanoma
UACC-62 melanoma = test system: UACC-62 melanoma

SMILES	GI50 (A549 NSCLC) [µM]	TGI (A549 NSCLC) [µM]	GI50 (ACHN renal) [µM]	TGI (ACHN renal) [µM]	GI50 (COLO 205 colon) [µM]	TGI (COLO 205 colon) [µM]	GI50 (HT29 colon) [µM]	TGI (HT29 colon) [µM]	GI50 (LOX IMVI melanoma) [µM]	TGI (LOX IMVI melanoma) [µM]	TGI (MOLT-4 leukemia) [µM]	GI50 (PC-3 prostate) [µM]	TGI (PC-3 prostate) [µM]	TGI (RPMI-8226 leukemia) [µM]	GI50 (SF-539 CNS) [µM]	GI50 (SK-MEL-5 melanoma) [µM]	TGI (SK-MEL-5 melanoma) [µM]	TGI (UACC-62 melanoma) [µM]	TGI (SF-539 CNS) [µM]
Nc1nc(N)c2nc(CNc3ccc(C(=O)NC(CCCCNC(=O)c4ccccc4C(=O)O)C(=O)O)cc3)cnc2n1 (stereo not given)	0.00745	> 100	0.00519	> 100	0.537	> 100	0.00566	> 100	0.000869	> 100	> 100	0.000432	> 100	> 100	0.026	0.0913	> 100	> 100	
O=C(/C=C(\O)c1ccccc1)c1cc(-c2ccccc2)n(-c2ccccc2)n1		24.9		23.9		37.4		18.7		> 100	4.51		> 100	6.1			48.7	13.4	72.3
CC#CC(O)(C(=O)OC1CC2CCC(C1)N2C)C1CCCC1 (stereo not given)		> 100		> 100		> 100		> 100		> 100	> 100		> 100	> 100			> 100	> 100	> 100
NC(=O)c1cccc([C@@H]2O[C@H](CO)[C@@H](O)[C@H]2O)c1		> 100		71.3		48.7		99		> 85.4	8.45		> 100	29.8			53.2	60	6.28
Cc1nc2c(=O)n3c4c(cccc4c2o1)CCC3		> 100		> 100		> 100		> 100		> 100	> 100		> 100	> 100			> 100	> 100	> 100
O=C1c2ccccc2C(=O)c2oc(Br)cc21		1.03		3.22		3.47		3.68		> 100	4.27		11.1	6.99			0.284	1.84	1.84
CC[C@@H]1/C=C/C=C/C[C@H](C)[C@@H](O)[C@](C)(O)C(=O)[C@H](C)[C@@H](O)[C@H](C)C(=O)[C@H](C)[C@@H](O)[C@H](C)/C=C/C(=O)O[C@H]2[C@@H](C)[C@@H](CC1)O[C@@]1(CC[C@@H](C)[C@@H](CC(C)O)O1)[C@@H]2C (stereo not given in full)		9.1		8.69		1.99		4.19		4.32	6.26		5.05	10.3			1.7	6.57	10.3
COC(=O)c1ccc(NCc2cc(O)ccc2O)cc1		39.2		24		29		50.7		26.1	31.5		19.7	34.7			23.7	27	13.5
c1ccc(CC2(c3cc4ccccc4[nH]3)OCCO2)nc1		> 100		> 100		> 100		> 100		> 100	> 100		> 100	> 100			> 100	> 100	> 100
COc1ccc(CCc2nccn2C)cc1OC		> 100		> 100		> 100		> 100		> 100	> 100		> 100	> 100			> 100	> 100	> 100
CCOC(=O)C(=O)C(CCC(=O)c1ccc2ccccc2c1O)C(=O)OCC (stereo not given)		> 100		> 100		> 100		> 100		> 100	> 100		> 100	> 100			> 100	> 100	> 100
CCOP(=O)(OCC)/C(C#N)=C/c1ccnc2ccccc12		> 100		> 100		38.1		37.5		> 100	> 100		35.4	> 100			47.8	61.4	49.2
COc1ccc(CCNCCCC2c3ccccc3-c3ccccc32)cc1OC		31.4		29.6		3.4		16.1		28.7	41.8		29.9	22			23.3	30.3	30.8
CN(C)CC1CN=C(NC(=O)Nc2ccccc2)O1 (stereo not given)		> 100		> 100		> 100		> 100		> 100	> 100		> 100	> 100			> 100	> 100	> 100
CC(C)C(NCc1c(O)ccc2c(-c3ccccc3)cc(=O)oc12)C(=O)O (stereo not given)		> 100		> 100		> 100		> 100		> 100	> 100		> 100	> 100			> 100	> 100	> 100
CCOC(=O)c1c(N2CCCC2)[nH]c(=O)c(C(c2cccs2)c2c(O)c(C(=O)OCC)c(N3CCCC3)[nH]c2=O)c1O		> 100		> 100		> 100		> 100		> 100	> 100		> 100	> 100			> 100	> 100	> 100
COc1cc(C(=O)Oc2c(C#N)sc3c2c(=O)n(-c2ccccc2)c(=S)n3-c2ccccc2)cc(OC)c1OC		95.3		> 100		30.7		22.4		51.6	40.6		> 100	28.2			31.6	54.7	24.1
O=c1oc2ccc([N+](=O)[O-])cc2c(Nc2ccc3c(c2)S(=O)(=O)c2ccccc2O3)c1[N+](=O)[O-]		> 100		> 100		> 100		> 100		> 100	> 100		> 100	> 100			> 100	> 100	> 100
COc1cc(C2C(Cl)C(=O)N2NC(=O)c2ccc(NC(C)=O)cc2OC)ccc1O (stereo not given)		> 100		50.2		32		34.1		26.4	22.1		55	13.4			29.4	36.2	48.1

SMILES	GI50 (A549 NSCLC) [µM]	TGI (A549 NSCLC) [µM]	GI50 (ACHN renal) [µM]	TGI (ACHN renal) [µM]	GI50 (COLO 205 colon) [µM]	TGI (COLO 205 colon) [µM]	GI50 (HT29 colon) [µM]	TGI (HT29 colon) [µM]	GI50 (LOX IMVI melanoma) [µM]	TGI (LOX IMVI melanoma) [µM]	TGI (MOLT-4 leukemia) [µM]	GI50 (PC-3 prostate) [µM]	TGI (PC-3 prostate) [µM]	TGI (RPMI-8226 leukemia) [µM]	GI50 (SF-539 CNS) [µM]	GI50 (SK-MEL-5 melanoma) [µM]	TGI (SK-MEL-5 melanoma) [µM]	TGI (UACC-62 melanoma) [µM]	TGI (SF-539 CNS) [µM]
S=C1N=C(Cl)/C(=C\c2ccccc2)N1		> 100		> 100		> 100		> 100		> 100	> 100		> 100	> 100			> 100	> 100	> 100
CC1=NN(C(=O)CC(=O)Nc2cccc(Cl)c2)C(=O)C1N=Nc1ccc(C(=O)O)cc1 (stereo not given)		> 100		> 100		> 100		> 100		> 100	> 100		> 100	> 100			> 100	> 100	> 100
CC(=O)c1sc(=N)n(-c2c(C)cccc2C)c1C		> 100		> 100		> 100		> 100		> 100	> 100		> 100	> 100			> 100	> 100	> 100
O=C(CSC1=NNC2(C(=O)N1)c1ccccc1-c1ccccc12)NC(=S)Nc1ccccc1		> 10		> 10		> 10		> 10		> 10	> 10		> 10	> 10			> 10	> 10	> 10
CCCC[C@H]1CCN2C[C@@H](O)[C@@H](O)[C@H]2[C@@H]1O		> 100		> 100		> 100		> 100		> 100	> 100		> 100	> 100			> 100	> 100	> 100
Cc1cc2c(cc1Cl)SC(NNc1ccc([N+](=O)[O-])cc1)=NS2(=O)=O		> 10		> 10		> 10		> 10		> 10	> 10		> 10	> 10			> 10	> 10	> 10
C=CCN1CN(c2ccccc2)C2(CCN(CCCC3(c4ccc(F)cc4)OCCO3)CC2)C1=O		42.9		48.3		37.9		20.4		34.5	39.6		31.7	34.2			29.8	34.5	23.1
N#CC(C#N)=Cn1c(=S)[nH]c2ccccc21		> 100		> 100		> 100		> 100		> 100	> 100		> 100	> 100			> 100	> 100	> 100
O=c1[nH]n(Cc2ccccc2Cl)c2ccccc12		> 100		> 100		> 100		> 100		> 100	> 100		> 100	> 100			> 100	> 100	> 100
CC(=O)ON(C(C)=O)c1ccc(-c2nc3ccccc3s2)cc1C		> 100		> 100		> 100		> 100		> 100	> 100		> 100	> 100			> 100	> 100	> 100
CC(C)C(NC(=O)C(Cc1ccccc1)NC(=O)[C@H]1CCC[C@H]1NC(=O)C(N)Cc1ccc(O)cc1)C(N)=O (stereo not given in full)		> 100		> 100		> 100		> 100		> 100	> 100		> 100	> 100			> 100	> 100	> 100
CCC(=O)C(C(C)/C=C/CCSc1ccccc1)C(O)CCCCCC(=O)OC (stereo not given)		> 100		> 100		> 100		> 100		> 100	81		> 100	> 100			> 100	> 100	> 100
CNCCC=C1c2ccccc2CCc2ccccc21		32.1		30.2		21		16.1		26.7	29.4		27.4	32.8			25.5	28.3	44.1
COc1cc2c(cc1OC)C(=O)N(NC1=NCCN1)C2=O		> 100		> 100		> 100		> 100		> 100	> 100		> 100	> 100			> 100	> 100	> 100
COc1ccc(C(=O)Nc2ccc3oc(-c4ccccc4)nc3c2)cc1		> 100		> 100		> 100		> 100		> 100	> 100		> 100	> 100			> 100	> 100	> 100
CC(=O)O[C@@H](C1C[C@@H](C)[C@H]2[C@@](O)(O1)[C@H](O)[C@@]1(C)C3=CC[C@H]4C(C)(C)[C@@H](OC5OCC(O)C(O)C5O)CC[C@@]45C[C@@]35CC[C@]21C)C(C)(C)O (stereo not given in full)		> 100		47.2		48.4		> 100		42.4	44.8		50.7	59.5			32.7	40.3	30.3
COc1ccc(N2C(=O)CC(c3c[nH]c4ncccc34)C2=O)cc1 (stereo not given)		> 100		43.6		36.5		40.5		> 100	> 41		> 31.6	> 100			> 100	> 96.4	> 65.3
O=c1[nH]c2c(c(=O)[nH]1)SSC2		> 63.5		> 67.5		50.7		40		6.24	4.79		> 71.1	6.83			29.1	9.14	9.7
CC1OC(OC2C(Oc3cc(O)c4c(c3)O[C@H](c3ccc(O)cc3)CC4=O)OC(CO)C(O)C2O)C(O)C(O)C1O (stereo not given in full)		> 100		> 100		> 100		> 100		> 100	> 100		> 100	> 100			> 100	> 100	> 100
